Data from patent publication US9028842B2, “Compositions and methods for treatment, research and therapeutic applications for malaria” (priority 2007, dated 2015).
Where no end group is shown, it is not given here.

What was measured:
[1] = test system: P. falciparum infected erythrocytes expressing PfHRPII-GFP; assay: Endocytic lipid import with the lipid marker FM4-64; type: cell-based, Plasmodium falciparum; settings: 5 μM PPMP, short-term (30 min)
Description: FM4-64 (N-(3-triethylammoniumpropyl)-4-(6-(4-(diethylamino)phenyl)hexatrienyl)pyridinium dibromide) is a fluorescent lipid marker that has been used to study endocytosis in eukaryotic cells^18. To visualize active uptake of FM4-64 from the erythrocyte plasma membrane during intraerythrocytic growth, trophozoite stage parasites expressing either PfHRPII-GFP or PFD0495c-GFP were incubated in the absence or presence of 5 μM dl-threo-PPMP for 30 min at 37° C. Infected erythrocytes were washed three times in PBS then stained with 16 μM FM4-64 for 30 min at 37° C. Nuclei were stained with 10 μg/mL Hoechst 33342, and cells were washed with PBS three times. Cells were imaged live with DeltaVision Deconvolution microscopy^10.

[2] = test system: P. falciparum 3D7 and PFD0495c-GFP clones; assay: Reversibility of treatment with PPMP after 24 hr; type: cell-based, Plasmodium falciparum
Description: Synchronized ring stage parasites at 5-10% pst were incubated with 5 uM PPMP for 24 hr (day 1). Infected erythrocytes were washed with RPMI 1640 three times to remove PPMP then put back into culture. Blood smears were made at days 0, 1, 2, and 3 and stained with Giemsa. Parasites were fed fresh media every 24 hr. Rings, trophozoites and schizonts were enumerated by a counter who was blinded to sample identity. Both PFD0495c-GFP clones responded to PPMP in the same manner as 3D7. […] When PPMP was washed out, all parasites continued the cell cycle and at day 2 matured to schizonts, which formed new rings by day 3.

[3] = test system: P. falciparum ring stage parasites; assay: Quantitative RT-PCR of PFD0495c transcript after PPMP treatment; type: cell-based, Plasmodium falciparum; settings: 5 μM PPMP, 12 and 24 hr of treatment
Description: Quantitative PCR was used to confirm the array results. Parasites were synchronized by successive rounds of percoll and sorbitol. Ring stage parasites were treated with either 5 μM dl-threo-PPMP or vehicle (ethanol=0.01%) for 3, 6, 12, and 24 h. RNA was isolated using Trizol (Invitrogen) and treated with DNAse (Promega) according the manufacturer's recommendations. Integrity of the RNA was confirmed with the 2100 Bioanalyzer (Agilent). First strand cDNA synthesis was initiated by priming 5 ug RNA with 40 ug/mL oligo(dT)12-18 at 65° C. for 5 min then incubating reaction with 0.5 mM dNTPs and 200 U SuperScript reverse transcriptase (Invitrogen) for 60 min at 42° C. The reaction was inactivated by heating to 70° C. for 15 min. […]
Amplification of P. falciparum 18S ribosomal RNA (GI 160642), an endogenous control, was done in parallel (forward 5′-ACAATTGGAGGGCAAGT-′3 (SEQ ID NO:39), reverse 5′-TTGGAGCTGGAATTACC-3′ (SEQ ID NO:40)) to standardize the amount of sample in each well. […] Relative quantification was performed using the comparative method, whereby the amount of PFD0495c was normalized to the endogenous control 18S rRNA. […]

[4] = test system: P. falciparum 3D7 and PFD0495c-GFP clones; settings: after 36 h of treatment, previous studies; cited from earlier work
[5] = test system: P. falciparum 3D7 ring stage parasites; assay: Transcriptional response to PPMP treatment by microarrays; type: cell-based, Plasmodium falciparum; settings: 5 μM dl-threo-PPMP, 24 hr, relative to control trophozoites
Description: Ring stage parasites were treated with either 5 μM dl-threo-PPMP or vehicle ([ethanol]f=0.01%) for 24 hr and were harvested for RNA isolation. Untreated ring stage parasites were also harvested. The experimental design served to compare PPMP— to either mock-treated or ring stage transcripts. RNA was isolated according to Invitrogen (Carlsbad, Calif.) protocols using Trizol. First strand cDNA synthesis and hybridizations were performed according to previous protocols^24. Microarray slides were scanned using GenePix 4000B Scanner and analyzed with GenePix Pro 4.1. The statistical program R with the add-in package SMA (http://www. followed by stat.berkeley.edu/%7Eterry/zarray/Software/smacode.html) was used to normalize data^25,26. Only high quality features and those with signal two standard deviations above background were analyzed, leaving 4580 elements from a total of 8088 oligos. Features with a log odds ratio above zero were considered.

[6] = test system: TVN of P. falciparum infected ghosts; assay: Visualization of tubovesicular network by BODIPY-Texas Red C5 ceramide staining; type: cell-based, Plasmodium falciparum; settings: 10 μM in erythrocyte cytoplasm
Description: To visualize TVN membranes, erythrocytes or ghosts infected with indicated P. falciparum strain were washed free of serum and stained with 2.5 μM BODIPY-Texas Red C5 ceramide (N-((4-(4,4-difluoro-5-(2-thienyl)-4-bora-3a,4a-diaza-s-indacene-3-yl)phenoxy)acetyl)sphingosine, Invitrogen) for 15 min at 37° C. Nuclei were stained with 10 μg/mL Hoechst 33342. The cells were washed in RPMI 1640 three times and viewed live by DeltaVision Deconvolution microscopy as described^9.

P. falciparum = assay: GST-fusions loaded into resealed erythrocyte ghosts, then infection by Plasmodium falciparum; type: cell-based
Source text: Erythrocytes were loaded with GST cargo and resealed according to previous protocols^15. Schizonts were percoll-purified to >95% purity and mixed with loaded ghosts at 2% parasitemia. Numbers of rings, trophozoites and schizonts were enumerated by a counter who was blinded to sample identity. Parasite morphology was monitored for any differences. Images of blood smears were taken by light microscopy with a Zeiss Axioskop upright microscope and Nuance spectral camera/un-mixing system (Cambridge Research and Instrumentation).

[7] = test system: P. falciparum 3D7 infected ghosts; assay: Indirect immunofluorescence assay of parasite protein export in infected ghosts; type: cell-based, Plasmodium falciparum; settings: 10 μM in erythrocyte cytoplasm
Description: Indirect immunofluorescence assay was conducted as described^27. Ghosts that were infected with 3D7 were probed with antibodies to HRPII (Santa Cruz) and MSP1 (MR4) and appropriate secondary antibodies conjugated to FITC or rhodamine. Nuclei were stained with 10 μg/mL Hoechst 33342. Images were captured using DeltaVision Deconvolution microscopy as described^10.

[8] = 50 μM in resealed erythrocyte ghosts

Row | Compound | internalization of FM4-64 via TVN tubules [1] | reversibility of effects on parasite growth upon washing out drug ([2]; 5 μM PPMP 24 h, parent line and transgenic clones) | parasite stage after 24 incubation ([2]; 5 uM PPMP, 3D7 and both PFD0495c-GFP clones) | PFD0495c transcript level compared to vehicle control [3] | concentrations inhibiting 50% and 90% parasite growth [4] | PFC0435w transcriptional change (down regulated) [5] [fold] | PFD0495c transcriptional change (upregulated) [5] [fold] | effect on tubular-TVN development [6] | effect on invasion (measured as ring formation) (P. falciparum; [8]) | effect on trophozoite growth (P. falciparum; [8]) | parasitemia on Day 3 (P. falciparum; ghosts loaded with 10 μM) | effect on parasite protein export [7]
1 | CCCCCCCCCCCCCCCC(=O)N[C@H](CN1CCOCC1)[C@H](O)c1ccccc1 (racemic) [PPMP, dl-threo-1-phenyl-2-palmitoyl-3-morpholino-1-propanol] | blocked | completely reversible | remained at the trophozoite stage | significantly up-regulated | low micromolar | ~4 | ~3 |  |  |  |  | 
2 | GST-PFD0495cCterm: recombinant form of the C-terminal region of PFD0495c (amino acids 795 to 833) fused to glutathione S-transferase (DLDIDDTLKFQHDQEFLNYFKRYQDFNNQLFDSFRSDDR; also: fused to glutathione S-transferase) |  |  |  |  |  |  |  | disrupted | no significant effect | inhibitory | 6-7% | no deleterious effect
